From ChEMBL document CHEMBL5724914, “Linking interpersonal differences in gut microbiota composition and drug biotransformation activity” (2024)

Assays:
[1] = human gut metagenome, 24 h, 2 µM
[2] = human gut metagenome, 24 h, 2 µM; remark: listed apart in the source
[3] = human gut metagenome, 24 h, 2 µM; remark: listed apart in the source
[4] = The drug is tested on Z-013 corresponding to rabbit gut metagenome with ENA study accession number: PRJEB37062 and ENA sample accession number: ERS12561813 for biotransformation under anaerobic condition. The drug concentrations were measured over 9 timepoints collected between 0 and 24 hours of incubation by liquid-chromatography-coupled mass spectrometry (LC–MS); details: 2 µM
[5] = human gut metagenome, 24 h, 2 µM; remark: listed apart in the source
[6] = The drug is tested on Z-017 corresponding to mouse gut metagenome with ENA study accession number: PRJEB37062 and ENA sample accession number: ERS12561816 for biotransformation under anaerobic condition. The drug concentrations were measured over 9 timepoints collected between 0 and 24 hours of incubation by liquid-chromatography-coupled mass spectrometry (LC–MS); details: 2 µM
[7] = human gut metagenome, 24 h, 2 µM; remark: listed apart in the source
[8] = human gut metagenome, 24 h, 2 µM; remark: listed apart in the source
[9] = The drug is tested on WLS-027 corresponding to human gut metagenome with ENA study accession number: PRJEB37062 and ENA sample accession number: ERS12561744 for biotransformation under anaerobic condition. The drug concentrations were measured over 9 timepoints collected between 0 and 24 hours of incubation by liquid-chromatography-coupled mass spectrometry (LC–MS); details: 2 µM
[10] = The drug is tested on Z-006 corresponding to mouse gut metagenome with ENA study accession number: PRJEB37062 and ENA sample accession number: ERS12561806 for biotransformation under anaerobic condition. The drug concentrations were measured over 9 timepoints collected between 0 and 24 hours of incubation by liquid-chromatography-coupled mass spectrometry (LC–MS); details: 2 µM
[11] = The drug is tested on Z-014 corresponding to rat gut metagenome with ENA study accession number: PRJEB37062 and ENA sample accession number: ERS12561814 for biotransformation under anaerobic condition. The drug concentrations were measured over 9 timepoints collected between 0 and 24 hours of incubation by liquid-chromatography-coupled mass spectrometry (LC–MS); details: 2 µM
[12] = The drug is tested on WLS-240 corresponding to human gut metagenome with ENA study accession number: PRJEB37062 and ENA sample accession number: ERS12561773 for biotransformation under anaerobic condition. The drug concentrations were measured over 9 timepoints collected between 0 and 24 hours of incubation by liquid-chromatography-coupled mass spectrometry (LC–MS); details: 2 µM
[13] = The drug is tested on WLS-170 corresponding to human gut metagenome with ENA study accession number: PRJEB37062 and ENA sample accession number: ERS12561762 for biotransformation under anaerobic condition. The drug concentrations were measured over 9 timepoints collected between 0 and 24 hours of incubation by liquid-chromatography-coupled mass spectrometry (LC–MS); details: 2 µM
[14] = The drug is tested on WLS-077 corresponding to human gut metagenome with ENA study accession number: PRJEB37062 and ENA sample accession number: ERS12561750 for biotransformation under anaerobic condition. The drug concentrations were measured over 9 timepoints collected between 0 and 24 hours of incubation by liquid-chromatography-coupled mass spectrometry (LC–MS); details: 2 µM
[15] = human gut metagenome, 24 h, 2 µM; remark: listed apart in the source
[16] = The drug is tested on Z-026 corresponding to metagenome with ENA study accession number: PRJEB37062 and ENA sample accession number: ERS12561825 for biotransformation under anaerobic condition. The drug concentrations were measured over 9 timepoints collected between 0 and 24 hours of incubation by liquid-chromatography-coupled mass spectrometry (LC–MS); details: 2 µM
[17] = The drug is tested on Z-019 corresponding to rat gut metagenome with ENA study accession number: PRJEB37062 and ENA sample accession number: ERS12561818 for biotransformation under anaerobic condition. The drug concentrations were measured over 9 timepoints collected between 0 and 24 hours of incubation by liquid-chromatography-coupled mass spectrometry (LC–MS); details: 2 µM
[18] = human gut metagenome, 24 h, 2 µM; remark: listed apart in the source
[19] = human gut metagenome, 24 h, 2 µM; remark: listed apart in the source
[20] = human gut metagenome, 24 h, 2 µM; remark: listed apart in the source
Also: call rule not given here.

SMILES	Bacterial Biotransformation [1]	Bacterial Biotransformation [2]	Bacterial Biotransformation [3]	Bacterial Biotransformation [4]	Bacterial Biotransformation [5]	Bacterial Biotransformation [6]	Bacterial Biotransformation [7]	Bacterial Biotransformation [8]	Bacterial Biotransformation [9]	Bacterial Biotransformation [10]	Bacterial Biotransformation [11]	Bacterial Biotransformation [12]	Bacterial Biotransformation [13]	Bacterial Biotransformation [14]	Bacterial Biotransformation [15]	Bacterial Biotransformation [16]	Bacterial Biotransformation [17]	Bacterial Biotransformation [18]	Bacterial Biotransformation [19]	Bacterial Biotransformation [20]
CNC(=C[N+](=O)[O-])NCCSCc1ccc(CN(C)C)o1 [RANITIDINE]	Compound metabolized	Compound NOT metabolized	Compound NOT metabolized	Compound NOT metabolized	Compound metabolized	Compound metabolized	Compound metabolized	Compound NOT metabolized	Compound NOT metabolized	Compound metabolized	Compound metabolized	Compound NOT metabolized	Compound NOT metabolized	Compound NOT metabolized	Compound NOT metabolized	Compound metabolized	Compound metabolized	Compound NOT metabolized	Compound NOT metabolized	Compound metabolized
Nc1nc2ccc(OC(F)(F)F)cc2s1 [RILUZOLE]	Compound NOT metabolized	Compound metabolized	Compound metabolized	Compound NOT metabolized	Compound metabolized	Compound NOT metabolized	Compound metabolized	Compound metabolized	Compound metabolized	Compound NOT metabolized	Compound NOT metabolized	Compound metabolized	Compound metabolized	Compound metabolized	Compound metabolized	Compound metabolized	Compound NOT metabolized	Compound metabolized	Compound metabolized	Compound NOT metabolized
CC(C)c1nc(CN(C)C(=O)N[C@H](C(=O)N[C@@H](Cc2ccccc2)C[C@H](O)[C@H](Cc2ccccc2)NC(=O)OCc2cncs2)C(C)C)cs1 [RITONAVIR]	Compound NOT metabolized	Compound metabolized	Compound metabolized	Compound metabolized	Compound metabolized	Compound NOT metabolized	Compound metabolized	Compound metabolized	Compound metabolized	Compound metabolized	Compound metabolized	Compound metabolized	Compound metabolized	Compound metabolized	Compound metabolized	Compound metabolized	Compound NOT metabolized	Compound metabolized	Compound metabolized	Compound NOT metabolized
CC(C)NCC(O)c1ccc(NS(C)(=O)=O)cc1 (stereo not given) [SOTALOL]	Compound NOT metabolized	Compound NOT metabolized	Compound NOT metabolized	Compound NOT metabolized	Compound NOT metabolized	Compound NOT metabolized	Compound NOT metabolized	Compound NOT metabolized	Compound NOT metabolized	Compound NOT metabolized	Compound NOT metabolized	Compound NOT metabolized	Compound metabolized	Compound NOT metabolized	Compound NOT metabolized	Compound NOT metabolized	Compound NOT metabolized	Compound NOT metabolized	Compound NOT metabolized	Compound NOT metabolized
CCN1CCCC1CNC(=O)c1cc(S(N)(=O)=O)ccc1OC (stereo not given) [SULPIRIDE]	Compound NOT metabolized	Compound metabolized	Compound NOT metabolized	Compound NOT metabolized	Compound metabolized	Compound NOT metabolized	Compound metabolized	Compound metabolized	Compound metabolized	Compound NOT metabolized	Compound NOT metabolized	Compound metabolized	Compound metabolized	Compound metabolized	Compound NOT metabolized	Compound NOT metabolized	Compound NOT metabolized	Compound NOT metabolized	Compound metabolized	Compound NOT metabolized
